Measurements: patent US20090196885A1, “Cancer Treatment” (National Health Research Institutes, priority 2005, published 2009)

Test system: Hep G2 hepatoma cells
Assay: In vitro cancer cell proliferation assay (sulforhodamine B), Hep G2
Type: cell-based
Details: Homo sapiens, HepG2, 144 h; lovastatin 2 μM alone; incubation for 6 days; read-out: inhibited growth of Hep G2 cells
Description: Hep G2 hepatoma cells were seeded in a 96-well culture plate (2000 cells/well) and cultured overnight in 100 μl of complete DMEM.

Question: How did the inhibition at 2 µM turn out when CC[C@H](C)C(=O)O[C@H]1C[C@@H](C)C=C2C=C[C@H](C)[C@H](CC[C@@H]3C[C@@H](O)CC(=O)O3)[C@H]21 [lovastatin] was run?
Answer: Its inhibition at 2 µM is 11.5%.
